{
  "source": "paper PMC6522524",
  "about": "(Nature Communications, 2019)",
  "key": {"[1]": {"molecular_target": "T1, Cp149 (truncated HBV core protein) (Hepatitis B virus genotype D subtype ayw, UniProt P03146)", "T1 construct": "Cp149 (amino acids 1–149) is a truncated form of the HBV core protein; made in house; host or cells: Escherichia coli", "test": "Electron microscopy of HBV capsid assembly in vitro", "type": "biochemical"}, "[2]": {"tested_on": "HBV (genotype D) in Huh-7-NTCP cells", "test": "In vitro HBV infection model, Huh-7-NTCP cells: secreted HBV DNA"}, "[3]": {"tested_on": "HBsAg in HepG2.2.15 cells", "test": "Secreted HBsAg ELISA, HepG2.2.15 cells", "type": "cell-based, Hepatitis B virus", "experimental": "(§1) Secreted HBsAg (f, i respectively) was quantified by ELISA.\n(§2) An HBsAg ELISA kit (KA0286, Abnova) was used to quantify HBsAg protein. Briefly, culture media were incubated in individual wells of the capture plates for 2 h. After washing, horseradish peroxidase-labeled rabbit anti-HBV surface antibody was added, followed by incubation for an additional 2 h. The substrate solution was added for 15–60 min and absorbance at 450 nm was measured."}, "[4]": {"tested_on": "HBV rcDNA in Huh-7-NTCP cells", "test": "In vitro HBV infection model, Huh-7-NTCP cells: intracellular HBV rcDNA"}, "HepG2.2.15 cells": {"tested_on": "HepG2.2.15 cells", "details": "0.1–10 μM, 6 days"}, "[5]": {"tested_on": "HBsAg in HepG2 cells transfected with pHBV1.2×", "test": "Secreted HBsAg ELISA, HepG2 cells transfected with pHBV1.2×", "type": "cell-based, Hepatitis B virus", "experimental": "as §1, §2"}, "[6]": {"tested_on": "HBV (genotype D) in HepG2-NTCP cells", "test": "In vitro HBV infection model, HepG2-NTCP cells: secreted HBV DNA"}, "BALB/c male mice": {"tested_on": "BALB/c male mice", "details": "mouse, in vivo, po", "experimental": "Five mice were included in each group. Mortality was monitored daily, and bodyweight was measured every other day. On day 28, blood was taken from the orbital sinus, and white blood cells, red blood cells and platelets were counted. Blood urea nitrogen, creatinine, glucose, total bilirubin, total cholesterol, triglyceride, albumin, total protein, aspartate aminotransferase, alanine aminotransferase (ALT), sodium, potassium, and chloride were measured. Urinalysis was performed including urobilinogen, glucose, bilirubin, ketone, specific gravity, blood, pH, protein, nitrate, and leukocytes.\nSupplementary Table 3. Mean numbers of blood cells, and parameters for kidney and liver\nData are expressed as means ± standard deviations.\nAbbreviations: WBC, white blood cell, AST, aspartate transaminase; ALT, alanine transaminase; ALP,\nalkaline phosphatase; BUN, blood urea nitrogen; Na, sodium; K, potassium; Cl. Chloride; S.G, specific"}, "in vitro": {"test": "in vitro", "details": "human, Cell viability(%)"}, "[7]": {"molecular_target": "HBV core protein Y118F mutant in Huh-7 cells (Hepatitis B virus genotype C, UniProt P0C6H6, Y118F)", "test": "Intracellular HBV capsid assembly, Huh-7 cells transfected with pCDNA3-Core Y118F", "type": "cell-based"}, "[8]": {"tested_on": "HBV cccDNA in Huh-7-NTCP cells", "test": "In vitro HBV infection model, Huh-7-NTCP cells: intracellular cccDNA"}, "[9]": {"details": "ref https://www.drugbank.ca/; cited from earlier work"}, "[10]": {"tested_on": "total HBV core protein in Huh-7 cells", "type": "cell-based, Hepatitis B virus", "experimental": "the indicated times. The cells were lysed and assembled HBV core particles were isolated by sucrose step-gradient ultracentrifugation, resolved on 1 % agarose gels, and subjected to immunoblot analysis with anti-HBV core antibody. Total intracellular HBV core protein was also determined by immunoblot analysis in the cell lysates. Core mRNA levels were measured by quantitative RT-PCR. The data"}, "[11]": {"tested_on": "HBV rcDNA in HepG2-NTCP cells", "test": "In vitro HBV infection model, HepG2-NTCP cells: intracellular HBV rcDNA"}, "[12]": {"tested_on": "HBV transcripts in HepG2 cells transfected with pHBV1.2×", "test": "HBV transcription in HepG2 cells transfected with pHBV1.2×, quantitative RT-PCR", "type": "cell-based, Hepatitis B virus", "experimental": "Quantitative RT-PCR with primers that detect three HBV regions (R1, R2, and R3, Supplementary Table 1) was used to measure HBV transcription. This RT-PCR detects pgRNA and precore RNA (3.5 kB), two HBV surface-encoding RNAs (2.5 kB and 2.1 kB), and HBx-encoding RNA (0.7 kB)[55]. PCR conditions were 95 °C for 10 min initially, then 50 cycles of 95 °C for 30 s, 60 °C for 60 s and 72 °C for 30 s, and finally 1 cycle of 95 °C for 60 s, 55 °C for 30 s and 95 °C for 30 s. […]\na Schematic depiction of the R1, R2, and R3 regions of the HBV genome that were targeted by quantitative RT-PCR to quantitate the transcription of pgRNA, two HBV surface RNAs, and HBx RNA. […]\nc Region 3 transcription in ciclopirox-treated (b) HepG2.2.15 cells and (c) HepG2 cells transfected with the pHBV1.2× plasmid. d The promoter analysis of ciclopirox-treated HepG2 cells transfected with pGL3/HBV pgRNA promoter or pGL3/HBV sRNA promoter. The data shown in (b – d) represent two"}, "[13]": {"molecular_target": "HBV core protein (pCDNA3-Core, Y118 wild-type) in Huh-7 cells (Hepatitis B virus genotype C, UniProt P0C6H6)", "test": "cell-based", "type": "cell-based"}, "[14]": {"tested_on": "HBV (pHBV1.2× adr) in transfected HepG2 cells", "test": "microbe, parasite or virus in culture", "type": "cell-based, Hepatitis B virus", "details": "Hepatitis B virus, HepG2, 144 h; HBV1.2× adr transfected cells, 6 days; read-out: IC50, intracellular HBV DNA"}, "[15]": {"details": "Huh-7, read-out: Relative intensity (Folds), intracellular capsid, AVERAGE"}, "[16]": {"details": "Huh-7, read-out: Relative intensity (Folds), intracellular capsid, individual samples"}},
  "note": "“Also recorded” adds a separate entry of the source. Like-named read-outs stand apart in the source and are kept apart here.",
  "data": [
    {"smiles": "Cc1cc(C2CCCCC2)n(O)c(=O)c1", "note": "[Ciclopirox, 6-cyclohexyl-1-hydroxy-4-methyl-2(1 H)-pyridone]", "values": [
      {"measurement": "HBV capsid morphology (EM)", "setting": "[1]", "result": "HBV capsid morphology was altered"},
      {"measurement": "secretion of HBV DNA", "setting": "[2]", "result": "dropped markedly"},
      {"measurement": "HBsAg production", "setting": "[3]", "result": "no effect"},
      {"measurement": "intracellular relaxed circular DNA levels", "setting": "[4]", "result": "dropped markedly"},
      {"measurement": "cytotoxicity", "setting": "HepG2.2.15 cells", "result": "no significant cytotoxicity"},
      {"measurement": "HBsAg production", "setting": "[5]", "result": "no effect"},
      {"measurement": "secretion of HBV DNA", "setting": "[6]", "result": "dropped markedly"},
      {"measurement": "Cl", "setting": "BALB/c male mice; 1 mg/kg/day", "result": "100.0 ± 1.0", "unit": "mmol/L"},
      {"measurement": "Cl", "setting": "BALB/c male mice; 5 mg/kg/day", "result": "99.0 ± 1.0", "unit": "mmol/L"},
      {"measurement": "viability at 0.1 µM", "setting": "in vitro; AVERAGE", "result": 99.9, "unit": "%"},
      {"measurement": "viability at 0.2 µM", "setting": "in vitro; AVERAGE", "result": 99.2, "unit": "%"},
      {"measurement": "viability at 0.5 µM", "setting": "in vitro; AVERAGE", "result": 99.4, "unit": "%"},
      {"measurement": "viability at 1 µM", "setting": "in vitro; AVERAGE", "result": 99.9, "unit": "%"},
      {"measurement": "viability at 2 µM", "setting": "in vitro; AVERAGE", "result": 99.4, "unit": "%"},
      {"measurement": "viability at 5 µM", "setting": "in vitro; AVERAGE", "result": 99.2, "unit": "%"},
      {"measurement": "viability at 10 µM", "setting": "in vitro; AVERAGE", "result": 99.8, "unit": "%"},
      {"measurement": "viability at 0.1 µM", "setting": "in vitro; individual samples", "result": 98.9, "unit": "%"},
      {"measurement": "viability at 0.2 µM", "setting": "in vitro; individual samples", "result": 95.7, "unit": "%"},
      {"measurement": "viability at 0.5 µM", "setting": "in vitro; individual samples", "result": 98.9, "unit": "%"},
      {"measurement": "viability at 1 µM", "setting": "in vitro; individual samples", "result": 99.9, "unit": "%"},
      {"measurement": "viability at 2 µM", "setting": "in vitro; individual samples", "result": 99.6, "unit": "%"},
      {"measurement": "viability at 5 µM", "setting": "in vitro; individual samples", "result": 97.6, "unit": "%"},
      {"measurement": "viability at 10 µM", "setting": "in vitro; individual samples", "result": 99.9, "unit": "%"},
      {"measurement": "reduction in sensitivity of Y118F compared with the wild-type", "setting": "[7]", "result": "approximately 4 fold"},
      {"measurement": "cccDNA levels", "setting": "[8]", "result": "dropped markedly"},
      {"measurement": "pKa value (acidic)", "setting": "[9]", "result": 6.84},
      {"measurement": "Total denatured HBV core protein", "setting": "[10]; 36 h", "result": "not affected"},
      {"measurement": "total core protein", "setting": "[10]; treatment time increased", "result": "decreased"},
      {"measurement": "intracellular relaxed circular DNA levels", "setting": "[11]", "result": "dropped markedly"},
      {"measurement": "HBV transcripts levels", "setting": "[12]", "result": "no effect"},
      {"measurement": "intracellular HBV capsid assembly", "setting": "[13]", "result": "inhibited HBV capsid assembly; also recorded: affected intracellular HBV capsid assembly"},
      {"measurement": "activity at 0.1 µM", "setting": "[13]; [15]", "result": 92.1, "unit": "%"},
      {"measurement": "activity at 0.5 µM", "setting": "[13]; [15]", "result": 95.1, "unit": "%"},
      {"measurement": "activity at 1 µM", "setting": "[13]; [15]", "result": 82.9, "unit": "%"},
      {"measurement": "activity at 5 µM", "setting": "[13]; [15]", "result": 20.4, "unit": "%"},
      {"measurement": "activity at 10 µM", "setting": "[13]; [15]", "result": 2.39, "unit": "%"},
      {"measurement": "activity at 0.1 µM", "setting": "[13]; [16]", "result": 90, "unit": "%"},
      {"measurement": "activity at 0.5 µM", "setting": "[13]; [16]", "result": 92.6, "unit": "%"},
      {"measurement": "activity at 5 µM", "setting": "[13]; [16]", "result": 17.9, "unit": "%"},
      {"measurement": "activity at 10 µM", "setting": "[13]; [16]", "result": 2.39, "unit": "%"},
      {"measurement": "IC50", "setting": "[14]", "result": "800 ± 180", "unit": "nM"}
    ]}
  ]
}
